Laboratory results: PubChem BioAssay (NCI)
Values joined by “and” are separate entries in the source; they are usually repeats but may differ in a detail not shown here. Equal entries are not always repeated.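 Compound exposure: 48 hours, 5 concentrations, 96-well plates. GI50 is the concentration that inhibits growth by half. TGI marks complete inhibition of growth.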

How the values were obtained:
Assay in all cases: NCI anticancer screen, dose series, 48 h
A498 renal = test system: A498 renal
A549 NSCLC = test system: A549 NSCLC
ACHN renal = test system: ACHN renal
CCRF-CEM leukemia = test system: CCRF-CEM leukemia
MALME-3M melanoma = test system: MALME-3M melanoma
NCI-H522 lung = test system: NCI-H522 lung
OVCAR-3 ovarian = test system: OVCAR-3 ovarian
OVCAR-4 ovarian = test system: OVCAR-4 ovarian
SF-295 CNS = test system: SF-295 CNS
SNB-75 CNS = test system: SNB-75 CNS
UACC-62 melanoma = test system: UACC-62 melanoma
MCF7 breast = test system: MCF7 breast
SN12C renal = test system: SN12C renal
T-47D breast = test system: T-47D breast
NCI/ADR-RES ovarian = test system: NCI/ADR-RES ovarian

SMILES	TGI (A498 renal) [µM]	TGI (A549 NSCLC) [µM]	TGI (ACHN renal) [µM]	TGI (CCRF-CEM leukemia) [µM]	TGI (MALME-3M melanoma) [µM]	TGI (NCI-H522 lung)	TGI (OVCAR-3 ovarian)	TGI (OVCAR-4 ovarian)	TGI (SF-295 CNS)	TGI (SNB-75 CNS) [µM]	TGI (UACC-62 melanoma) [µM]	TGI (MCF7 breast) [µM]	TGI (SN12C renal)	TGI (T-47D breast) [µM]	TGI (NCI/ADR-RES ovarian)	GI50 (ACHN renal) [µM]	GI50 (CCRF-CEM leukemia) [µM]	GI50 (NCI/ADR-RES ovarian) [µM]	GI50 (OVCAR-3 ovarian) [µM]	GI50 (OVCAR-4 ovarian) [µM]
COC(=O)C1CCc2c1c(=O)n1c([nH]c3ccccc31)c2C#N (stereo not drawn)	> 100	> 100	> 100	> 100	> 100	> 100 µM	> 100 µM	> 100 µM	> 100 µM	> 100	> 100	–	–	–	–	–	–	–	–	–
CCOC(=O)c1c(N)n(-c2ccccc2)c(=O)n(-c2ccccc2)c1=O	–	> 100	> 100	–	> 100	> 100 µM	> 100 µM	> 100 µM	> 100 µM	> 100	> 100	> 100	> 100 µM	> 100	–	–	–	–	–	–
N#CC(C(=O)c1cccnc1Cl)c1nc2cc(C(F)(F)F)ccc2s1 (stereo not drawn)	87	> 100	> 100	–	> 100	61.4 µM	> 100 µM	> 100 µM	> 100 µM	> 100	–	–	> 100 µM	> 100	> 100 µM	–	–	–	–	–
CCc1n[nH]c(=O)n1/N=C/c1ccccc1O	–	> 100	> 100	> 100	–	> 100 µM	> 100 µM	> 100 µM	> 100 µM	> 100	> 100	> 100	> 100 µM	–	> 100 µM	–	–	–	–	–
O=c1cc(N=Nc2ccc(Br)cc2)[nH]c(=S)[nH]1	–	> 100	40.8	54.5	30.8	38 µM	28.9 µM	34.3 µM	> 100 µM	> 100	> 100	42.7	> 100 µM	62.4	> 100 µM	–	–	–	–	–
COc1cc(OC)c2c(c1)OC(c1ccccc1)CC2=O (stereo not drawn)	–	> 10	> 10	> 10	> 10	> 10 µM	> 10 µM	> 10 µM	> 10 µM	> 10	> 10	> 10	> 10 µM	> 10	> 10 µM	–	–	–	–	–
COP(=O)(OC)C(=O)N1N(c2ccc([N+](=O)[O-])cc2)C(=O)C(C)NC1(NNc1ccc([N+](=O)[O-])cc1)P(=O)(OC)OC (stereo not drawn)	> 100	> 100	> 100	> 100	> 100	> 100 µM	> 100 µM	> 100 µM	–	> 100	> 100	–	> 100 µM	–	–	–	–	–	–	–
COc1ccc(C2N(c3ccc(F)cc3)C(=O)N3C(c4ccc(OC)cc4)N(c4ccc(F)cc4)C(=O)N23)cc1 (stereo not drawn)	> 100	> 100	> 100	> 100	> 100	> 100 µM	> 100 µM	> 100 µM	> 100 µM	> 100	> 100	–	> 100 µM	> 100	> 100 µM	–	–	–	–	–
Nc1nc2c3nc(Nc4ccccc4)sc3nc(=S)n2c2sc(Nc3ccccc3)nc12	> 100	> 100	> 100	–	> 100	> 100 µM	–	> 100 µM	> 100 µM	> 100	> 100	–	> 100 µM	–	–	–	–	–	–	–
NC(Cc1ccc(OCc2ccccc2)cn1)C(=O)O (stereo not drawn)	> 100	> 100	> 100	> 100	> 100	> 100 µM	> 100 µM	–	> 100 µM	–	–	> 100	> 100 µM	–	> 100 µM	–	–	–	–	–
S=c1[nH]nc(CNc2ccc(-c3n[nH]c(=S)n3-c3ccc(Cl)cc3)cc2)n1-c1ccc(Cl)cc1	> 100	> 100	> 100	–	59.9	48.5 µM	–	> 100 µM	81.2 µM	> 100	78.8	> 100	82.8 µM	–	> 100 µM	–	–	–	–	–
O=C1C[C@H](c2ccccc2)O[C@@H](c2ccccc2)C1	–	> 100	–	> 100	> 100	–	> 100 µM	> 100 µM	> 100 µM	> 100	> 100	> 100	> 100 µM	> 100	> 100 µM	–	–	–	–	–
CC(Nc1ncc2c(n1)-c1ccccc1OC2)C(=O)O (stereo not drawn)	–	> 100	> 100	> 100	> 100	–	> 100 µM	> 100 µM	> 100 µM	> 100	> 100	> 100	> 100 µM	–	> 100 µM	–	–	–	–	–
CC1(C)O[C@@H]([C@H](O)CO)[C@H](O)[C@@H](C2SCCCS2)O1	> 100	> 100	> 100	–	–	–	> 100 µM	> 100 µM	> 100 µM	> 100	> 100	> 100	> 100 µM	> 100	> 100 µM	–	–	–	–	–
CCc1ccccc1N=NC(=O)NNc1ccccc1CC	36.5	31.9	54.6	65.6	32.7	41.3 µM	33.2 µM	69.8 µM	–	45.7	23	36.3	35.7 µM	32.2	–	–	–	–	–	–
C=CCn1c(-c2ccc([N+](=O)[O-])cc2)cs/c1=N\C(P(=O)(O)O)P(=O)(O)O	> 100	> 100	> 100	> 100	> 100	> 100 µM	> 100 µM	–	> 100 µM	> 100	> 100	> 100	–	–	> 100 µM	–	–	–	–	–
N#Cc1cccc2c1Nc1ccccc1S2	> 100	> 100	> 100	> 100	> 100	> 100 µM	> 100 µM	> 100 µM	> 100 µM	> 100	> 100	–	> 100 µM	–	–	–	–	–	–	–
O=[N+]([O-])c1cccc2nc3ccccc3c(NCCCn3ccnc3[N+](=O)[O-])c12	–	–	–	–	0.00107	0.0167 µM and 0.0252 µM	0.0178 µM and 0.0633 µM	0.0735 µM and 0.171 µM	0.214 µM and 0.0415 µM	0.0775	0.0187	0.00146	0.0722 µM and 0.0198 µM	–	0.495 µM and 0.348 µM	33.4	0.0218	0.0125	0.0122	0.0203

SMILES	TGI (A498 renal) [µM]	TGI (A549 NSCLC) [µM]	TGI (ACHN renal) [µM]	TGI (CCRF-CEM leukemia) [µM]	TGI (MALME-3M melanoma) [µM]	TGI (NCI-H522 lung)	TGI (OVCAR-3 ovarian)	TGI (OVCAR-4 ovarian)	TGI (SF-295 CNS)	TGI (SNB-75 CNS) [µM]	TGI (UACC-62 melanoma) [µM]	TGI (MCF7 breast) [µM]	TGI (SN12C renal)	TGI (T-47D breast) [µM]	TGI (NCI/ADR-RES ovarian)	GI50 (ACHN renal) [µM]	GI50 (CCRF-CEM leukemia) [µM]	GI50 (NCI/ADR-RES ovarian) [µM]	GI50 (OVCAR-3 ovarian) [µM]	GI50 (OVCAR-4 ovarian) [µM]
CCN(CC)c1cccc2c1/C(=N/O)CCCC2	–	> 100	> 100	> 100	> 100	> 100 µM	–	> 100 µM	> 100 µM	> 100	> 100	–	> 100 µM	–	–	–	–	–	–	–
CC(C)(O)/C=C\P(=O)(O)O	–	> 100	> 100	–	> 100	> 100 µM	> 100 µM	> 100 µM	> 100 µM	> 100	> 100	> 100	> 100 µM	> 100	> 100 µM	–	–	–	–	–
Cc1cc2c(c(C=Nc3ccccc3O)c1)OC1(C=C2)Oc2ccccc2C(=O)N1C (stereo not drawn)	56.1	70.8	40.3	46.3	–	–	29.4 µM	60 µM	68.2 µM	52.3	36.2	–	46.5 µM	8.45	37.5 µM	–	–	–	–	–
COc1ccc(C2=C(Cl)c3cc(OC)c(OC)cc3C2OC)cc1OC (stereo not drawn)	> 100	> 100	> 100	> 100	> 100	> 100 µM	–	> 100 µM	> 100 µM	> 100	> 100	–	> 100 µM	–	–	–	–	–	–	–
CC(C)OP(=O)(OC(C)C)/C(Cl)=N/Nc1ccc([N+](=O)[O-])cc1	> 100	> 100	> 100	> 100	> 100	> 100 µM	> 100 µM	> 100 µM	–	> 100	> 100	–	> 100 µM	–	–	–	–	–	–	–
CC(=O)Nc1ccc(NCC(=O)Nn2cnc3ccc(S(=O)(=O)Nc4ccc(NC(C)=O)cc4)cc3c2=O)cc1	–	> 100	> 100	> 100	> 100	> 100 µM	> 100 µM	> 100 µM	> 100 µM	> 100	> 100	> 100	> 100 µM	–	> 100 µM	–	–	–	–	–
CCCNC(=S)/N=C/c1c(O)cc(C)oc1=O	–	> 100	> 100	–	–	–	> 100 µM	> 100 µM	> 100 µM	> 100	> 100	> 100	> 100 µM	> 100	> 100 µM	–	–	–	–	–
Nc1ccc2c(O)cc(=O)[nH]c2n1	–	> 100	> 100	–	> 100	> 100 µM	–	> 100 µM	> 100 µM	> 100	> 100	> 100	> 100 µM	> 100	> 100 µM	–	–	–	–	–
CCN(CC)C(=O)Cc1c(C(=O)N(CC)CC)c(=O)nc2sccn12	> 100	> 100	> 100	> 100	> 100	> 100 µM	> 100 µM	> 100 µM	> 100 µM	> 100	> 100	–	> 100 µM	–	–	–	–	–	–	–
N#Cc1cc(C#N)c(N)nc1N	> 100	> 100	> 100	> 100	> 100	> 100 µM	> 100 µM	> 100 µM	> 100 µM	> 100	> 100	> 100	> 100 µM	–	> 100 µM	–	–	–	–	–
N#Cc1nc(CCN2C(=O)c3ccccc3C2=O)oc1N	–	> 100	> 100	> 100	> 100	> 100 µM	> 100 µM	> 100 µM	> 100 µM	–	–	> 100	> 100 µM	> 100	> 100 µM	–	–	–	–	–
CCOc1cc(C2SCC(=O)N2c2ccc(Oc3ccc(Cl)cc3)c(Cl)c2)ccc1O (stereo not drawn)	–	39.7	31.2	49.5	32.4	28.1 µM	30.6 µM	31.1 µM	34.1 µM	37.3	30.3	56.4	59.3 µM	40.4	36.9 µM	–	–	–	–	–
c1ccc([P+](CCSCCSCC[P+](c2ccccc2)(c2ccccc2)c2ccccc2)(c2ccccc2)c2ccccc2)cc1	> 100	> 100	> 100	–	–	–	> 100 µM	> 100 µM	> 100 µM	> 100	> 100	> 100	> 100 µM	> 100	> 100 µM	–	–	–	–	–
C[C@@H](c1ccccc1)n1c(N)c(-c2ccccn2)c2ccc([N+](=O)[O-])cc2c1=O	65.5	> 100	> 100	> 100	–	> 100 µM	–	> 100 µM	–	63	> 100	–	> 100 µM	> 100	> 100 µM	–	–	–	–	–
CN(C)CCCc1cccc2[nH]c3c(c12)CN(C)CC3	–	> 100	> 100	> 100	> 100	> 100 µM	> 100 µM	> 100 µM	> 100 µM	> 100	> 100	> 100	> 100 µM	> 100	> 100 µM	–	–	–	–	–
O=C1NC(N2CCOCC2)=N/C1=C\c1ccc(Cl)cc1	–	> 100	> 100	> 100	> 100	> 100 µM	> 100 µM	> 100 µM	> 100 µM	> 100	> 100	> 100	> 100 µM	> 100	> 100 µM	–	–	–	–	–
CNNC1=NS(=O)(=O)c2cc(C#N)c(Cl)cc2S1	> 10	> 10	> 10	> 10	> 10	> 10 µM	> 10 µM	> 10 µM	> 10 µM	> 10	> 10	–	> 10 µM	> 10	> 10 µM	–	–	–	–	–
O=c1[nH]c2ccccc2c(=O)n1/N=C/c1ccc(O)cc1	> 100	> 100	> 100	> 100	–	–	> 100 µM	–	> 100 µM	> 100	> 100	> 100	> 100 µM	> 100	> 100 µM	–	–	–	–	–
